One test concerns TNF-α. Put plainly: In-vitro anti-inflammatory test: TNF-α production by ELISA in LPS-treated macrophages (RAW 264.7). Type of test: cell-based. Conditions: RAW 264.7, LPS 100 ng/ml, test substance 1 μM and 10 μM, 24 hours, vs LPS-only control. As to the method: (§1) Lipopolysaccharide (LPS)-treated macrophages (RAW 264.7) were treated with the compounds prepared in Examples 1 and 2 as test substances, respectively, and the change in the production of inflammatory cytokines (TNF-α and IL-1β) was measured by ELISA and western blotting, respectively.
Specifically, 1×10^4 macrophages (RAW 264.7) were dispensed in each well of a 96-well plate together with 0.1 mL of Dulbecco's modified Eagle's medium (DMEM) containing 10% FBS (GIBCO) and 1% penicillin/streptomycin. After incubation for 1 day in a 5% CO2 incubator at 37° C., when the confluency of the cells reached 80% or higher, LPS (100 ng/ml) and the test substance were treated at concentrations of 1 μM and 10 μM, respectively, and incubated for 24 hours. A control group was treated only with LPS (100 ng/ml) and incubated for 24 hours. The supernatant of each test group was prepared as a sample for ELISA analysis. The production of TNF-α was investigated using an ELISA assay kit (ELISA MAX Standard Set Human TNF-α; BioLegend, #430201) and a microplate reader at 450 nm according to the manufacturer's protocol.

Another test deals with IL-1β. Put plainly: In-vitro anti-inflammatory test: IL-1β expression by western blotting in LPS-treated macrophages (RAW 264.7). Type of test: cell-based. Conditions: RAW 264.7, LPS 100 ng/ml, test substance 1 μM and 10 μM, 30 minutes, vs LPS-only control. Here is the method:
as §1
In addition, […] macrophages (RAW 264.7) were dispensed in each well of a 96-well plate together with 0.1 mL of Dulbecco's modified Eagle's medium (DMEM) containing 10% FBS (GIBCO) and 1% penicillin/streptomycin. After incubation for 1 day in a 5% CO2 incubator at 37° C., when the confluency of the cells reached 80% or higher, LPS (100 ng/ml) and the test substance were treated at concentrations of 1 μM and 10 μM, respectively, and incubated for 30 minutes. A control group was treated only with LPS (100 ng/ml) and incubated for 30 minutes. The cells were lysed using an NP40 cell lysis buffer and quantified by Bradford assay. Then, the expression level of IL-1β was measured by western blotting.

Test [1] relates to corneal damage-induced Sprague-Dawley rats. In words: Corneal damage model: corneal fluorescein staining score (NEI grading). Conditions: 10 μL/eye, 3 times a day; for corneal fluorescein staining score vs normal control group (G1): 6 hours to 5 days, p<0.01; for corneal fluorescein staining score vs induced control (G2): at 6 hours and on days 2 to 6, p<0.001, p<0.01 or p<0.05; for corneal fluorescein staining score vs PBS group (G3): days 3 to 6, p<0.001 or p<0.01. Type of test: in vivo. Here is the method:
(§2) Corneal damage was induced in pathogen-free (SPF) Sprague-Dawley rats (male, 7 weeks old) [Koatech, Korea]. Specifically, after anesthetizing the rats, a filter paper soaked in 2 μL of 0.1 M NaOH solution was applied to the center of the cornea of the right eye for about 10 seconds, and then washed with physiological saline. The body weight of the corneal damage-induced rats was measured, and they were randomly divided into groups G2 to G6 as shown in Table 2 so that the average body weight of each group was distributed uniformly. G1 is a normal control group in which corneal damage was not induced.
From the day of the corneal damage (day 0), the compound prepared in Example 2 as a test substance (i.e., acetate of the compound of the Chemical Formula 1b, hereinafter referred to as ‘Compound 1b’) was dissolved in physiological saline (PBS) at concentrations of 0.1% and 1% and instilled into the eye of the mice of G4 and G5 at 10 μL/eye, 3 times a day, for 7 days. G2 is an induced control group in which corneal damage was induced. For G3, physiological saline (PBS) was instilled 10 into the eye of the corneal damage-induced rats. For G6 (positive control), Restasis® ophthalmic solution (0.05%, containing cyclosporine) was instilled into the eye of the corneal damage-induced rats.
(§3) Statistical analysis was performed using Prism 7.04 (GraphPad Software Inc., San Diego, CA, USA), and a p-value smaller than 0.05 was judged to be statistically significant.

In test [2] the test system is dry eye syndrome-induced C57BL/6NHsd mice. Put plainly: Dry eye syndrome model: histopathological examination (H&E) of inflammation. The class given is in vivo. Particulars: day 10; for level of inflammation and fibrosis vs G2 and G3 (histopathology): 2 μL/eye, 3 times a day for 10 days, p<0.001 or p<0.05. As to the method: (§4) Dry eye syndrome was induced in specific pathogen-free (SPF) C57BL/6NHsd mice (male, 7 weeks old) [Koatech, Korea]. Specifically, during the dry eye syndrome induction period (from day −10 to day 0), scopolamine hydrobromide dissolved in physiological saline (PBS) was injected subcutaneously into the back skin of mice at a dose of 0.5 mg/0.2 mL, 4 times a day, for 10 days. After measuring the tear volume of the dry eye syndrome-induced mice, the mice were randomly divided into groups of G2 to G6 as shown in Table 1 so that the average tear volume of each group was distributed uniformly. G1 is a normal control group in which dry eye syndrome was not induced.
(§5) From the day of the induction of dry eye syndrome (day 0), the compound prepared in Example 2 as a test substance (i.e., acetate of the compound of the Chemical Formula 1b, hereinafter referred to as ‘Compound 1b’) was dissolved in physiological saline (PBS) at concentrations of 0.1% and 1% and dropped onto the center of the right cornea of the mice of G4 and G5 3 times a day for 10 days, respectively. G2 is a dry eye syndrome-induced control group. For G3, physiological saline (PBS) was dropped onto the center of the cornea of the right eye of the mice in which dry eye syndrome was induced. For G6 (positive control group), Restasis® ophthalmic solution (0.05%, containing cyclosporine) was dropped onto the center of the cornea of the right eye of the dry eye syndrome-induced mice.
On the day of autopsy (day 10), the animal was euthanized and the eyeball was removed to include the conjunctiva and fixed in a 10% neutral buffered formalin solution. Samples for histopathological examination were prepared through the processes of trimming, dehydration, paraffin embedding and thin-sectioning of the fixed tissue, followed by hematoxylin and eosin (H&E) staining. Then, the infiltration of inflammatory cells into the cornea, conjunctiva and anterior chamber was evaluated by optical microscopy (Olympus BX53, Japan). The inflammation of the cornea and conjunctiva was assessed according to the known method. The scoring criteria were as follows. Scores: 0 (normal), 1 (mild), 2 (moderate), 3 (severe).
as §3

The test system is the same in test [3]. Put plainly: Dry eye syndrome model: tear volume by phenol red thread test. The class given is in vivo. Conditions: 2 μL/eye, 3 times a day; for tear volume level vs normal control group (G1) / tear volume level vs induced control group (G2): days 5 and 10; for tear volume level vs induced control group (G2): p<0.001, p<0.01 or p<0.05. Here is the method: as §4, §5
Tear volume was measured by phenol red thread (PRT) test. Specifically, on days 5 and 10 after the start of the administration of the test substance, a phenol red thread was placed in the lateral canthus of the eye for 20 seconds and then tear volume (mm) was measured.
as §3

The test system of test [4] is corneal damage-induced Sprague-Dawley rats. In words: Corneal damage model: histopathological examination (H&E) of inflammatory cell infiltration. The class given is in vivo. Conditions: 10 μL/eye, 3 times a day for 7 days, day 7. Here is the method:
as §2, with “induced. […]” for “induced.”
On the day of autopsy (day 7), the animal was euthanized, and the eyeball was removed to include the conjunctiva and fixed in a 10% neutral buffered formalin solution. […] Then, the infiltration of inflammatory cells into the cornea, conjunctiva and anterior chamber was evaluated by optical microscopy (Olympus BX53, Japan). The infiltration of inflammatory cells into the corneal stroma and anterior chamber was evaluated according to the known method. […]

The test system of test [5] is dry eye syndrome-induced C57BL/6NHsd mice. In words: Dry eye syndrome model: corneal fluorescein staining score (NEI grading). Type of test: in vivo. Conditions: 2 μL/eye, 3 times a day, day 5 to day 10; for corneal fluorescein staining score vs PBS group (G3): p<0.001 or p<0.01; for corneal fluorescein staining score vs normal control (G1): p<0.01 or p<0.05. Here is the method:
as §4, §5, §3

Non-standard residues stand in square brackets, D forms with d. Residues, ends and D or L forms follow the SMILES beside them.

`NC(=O)C[C@@H](NC(=O)[C@H](N)CC(=O)O)C(=O)N[C@H](CC(=O)O)C(=O)O` [Chemical Formula 1a] (H-[dD]-[dN]-[dD]-OH): in the test with TNF-α, the “secretion of inflammatory cytokine TNF-α” value is given as “inhibited in a concentration-dependent manner”. Further, in the test with IL-1β, the “expression of inflammatory cytokine IL-1β” value was “inhibited in a concentration-dependent manner”.
Take `NC(=O)C[C@@H](NC(=O)[C@H](N)CC(=O)O)C(=O)N[C@H](CC(=O)O)C(N)=O` [Compound 1b] (H-[dD]-[dN]-[dD]-NH2): the “secretion of inflammatory cytokine TNF-α” value in the test on TNF-α is listed as “inhibited in a concentration-dependent manner”. In addition, the “corneal fluorescein staining score vs normal control group (G1)” value in test [1] (G4: 0.1% in PBS) and in test [1] (G5: 1% in PBS) was “statistically significantly higher than that of the normal control group (G1)” in each case. The “corneal fluorescein staining score vs induced control (G2)” value in test [1] (G4: 0.1% in PBS), in test [1] (G5: 1% in PBS), in test [5] (G4: 0.1% in PBS) and in test [5] (G5: 1% in PBS) was “significantly lower than that of G2” throughout. In addition, the “corneal fluorescein staining score vs PBS group (G3)” value in test [1] (G4: 0.1% in PBS) is reported as “significantly lower than that of G3”; in test [1] (G5: 1% in PBS), “significantly lower than that of G3”; in test [5] (G4: 0.1% in PBS), “statistically significantly lower than that of G3”; in test [5] (G5: 1% in PBS) it was “statistically significantly lower than that of G3”. The “inflammation in the cornea and conjunctiva (histopathology)” value in test [2] (0.1% test substance-administered group) and in test [2] (1% test substance-administered group) was “no inflammation was observed” in each case. For the same compound, the “level of inflammation and fibrosis vs G2 and G3 (histopathology)” value in test [2] (G4: 0.1% in PBS) was “significantly lower as compared to G2 and G3”; in test [2] (G5: 1% in PBS) it was “significantly lower as compared to G2 and G3”. Moreover, the “tear volume level vs PBS group (G3)” value was “significantly higher than that of G3” in test [3] (G4: 0.1% in PBS, day 10, p<0.001); “statistically significantly higher than that of G3” in test [3] (G5: 1% in PBS, day 5, p<0.01); “significantly higher than that of G3” in test [3] (G5: 1% in PBS, day 10, p<0.001). In addition, the “tear volume level vs normal control group (G1)” value is reported as “statistically significantly lower than that of the normal control group (G1)” in test [3] (G4: 0.1% in PBS, p<0.001) and “statistically significantly lower than that of the normal control group (G1)” in test [3] (G5: 1% in PBS, p<0.001). Besides, the “tear volume level vs induced control group (G2)” value in test [3] (G4: 0.1% in PBS) and in test [3] (G5: 1% in PBS) was “significantly higher than that of G2” throughout. For the same compound, the “degree of infiltration of inflammatory cells into corneal keratocytes and anterior chamber vs G2 and G3” value in test [4] (G4: 0.1% in PBS) and in test [4] (G5: 1% in PBS) was “statistically significantly lower” throughout. For the same compound, the “corneal fluorescein staining score vs normal control (G1)” value in test [5] (G4: 0.1% in PBS) and in test [5] (G5: 1% in PBS) was “statistically significantly higher than that of G1” throughout. The “expression of inflammatory cytokine IL-1β” value in the test with IL-1β was “inhibited in a concentration-dependent manner”.

Source of the values: patent US20250320247A1, “NOVEL D-AMINO ACID DERIVATIVE AND PHARMACEUTICAL COMPOSITION COMPRISING SAME” (SENELIX CO., LTD., priority 2022, published 2025).
